In general, solubility refers to how much of the substance goes into solution per volume.

The values that follow come from PMC5939191 (Chemical Science, 2018).

Each structure is given as a SMILES string. Where a name gives a salt, the structure may show the parent alone.

This data set in a line: Apparent aqueous solubility by the dissolution method. Conditions: water; for solubility: 22 °C, thermodynamic from solid.

In the case of `CCCC[N+]1(C)[C@@H]2C[C@@H](OC(=O)[C@H](CO)c3ccccc3)C[C@H]1[C@@H]1O[C@@H]12` (stereo partly drawn) [[Bs]Br, Butyl scopolammonium bromide], the “solubility (unusually high)” value is given as “more than one gram per milliliter” and the solubility came out at 1800 ± 200 mg/mL.
`O=c1n(CCCN2CCN(c3cccc(Cl)c3)CC2)nc2ccccn12` [[TrH]Cl, Trazodone hydrochloride]: the solubility amounted to 38.5 ± 0.2 mg/mL.
